# Reference: patent publication US9198855B2, “Veterinary dermatologic composition” (Dermaconcept JMC, priority 2001, dated 2015)
# Tests used:
# [1] = test system: Staphylococcus Intermedius; assay: Multiplication of Staphylococcus Intermedius cultures, doses 0-100 ppm in usual culture environment without solubilising agent; type: cell-based; settings: for concentration completely inhibiting multiplication of Staphylococcus Intermedius cultures: complete inhibition; for concentration partly inhibiting multiplication of Staphylococcus Intermedius cultures: partial inhibition
# Experimental: (§1) The minimum inhibitory concentration in case of Malassezia pachyadermatis was 25 ppm. Experiments were carried out using doses of 0, 5, 10, 25, 50 and 100 ppm of phytosphingosin and its hydrochloric acid salt on Staphylococcus Intermedius in usual culture environment without solubilising agent.
# [2] = test system: Malassezia pachyadermatis; assay: In-vitro mycological study, minimum inhibitory concentration; type: cell-based, Malassezia pachydermatis
# Experimental: as §1
# However the effect is not limited to cats and dogs but extends to other furry animals, such as horses, rabbits, […]
# [3] = test system: Candida albicans; settings: inflammated, depilated guinea pig skin; cited from earlier work
# [4] = test system: Staphylococcus aureus; settings: inflammated, depilated guinea pig skin; cited from earlier work
Structure (SMILES),concentration completely inhibiting multiplication of Staphylococcus Intermedius cultures [1] [ppm],concentration partly inhibiting multiplication of Staphylococcus Intermedius cultures [1] [ppm],MIC ([2]; Malassezia pachyadermatis) [µg/mL],anti-fungal action against Malassezia pachydermatis ([2]; in-vitro mycological studies),activity against Candida albicans [3],activity against Staphylococcus aureus [4]
"CCCCCCCCCCCCCC[C@@H](O)[C@@H](O)[C@@H](N)CO.Cl [phytosphingosin hydrochloric acid salt, Phytosphingosin hydrochloric acid]",10,5,–,–,–,–
CCCCCCCCCCCCCC[C@@H](O)[C@@H](O)[C@@H](N)CO [phytosphingosin],10,5,25,anti-fungal action,–,–
"CCCCCCCCCCCCC/C=C/[C@@H](O)[C@@H](N)CO [Sphingosin, sphingosin]",–,–,–,–,little effect,little effect
CCCCCCCCCCCCCCC[C@@H](O)[C@@H](N)CO [sphinganin],–,–,–,–,effective,effective
